Measurements published in patent publication US20130225694A1, “COMPOSITIONS AND METHODS OF INHIBITING RETINAL DEGENERATION” (Oklahoma Medical Research Foundation, priority 2012, published 2013).

Tests used:
[1] = target: T1, chicken RPE65 (Gallus gallus, UniProt Q9YGX2); experiment: Liposome-based isomerohydrolase assay with recombinant chicken RPE65; format: biochemical
T1 construct: made in house; host or cells: 293A cells infected with chicken RPE65 adenovirus; total lysate used
T1 sequence (Q9YGX2 1-533): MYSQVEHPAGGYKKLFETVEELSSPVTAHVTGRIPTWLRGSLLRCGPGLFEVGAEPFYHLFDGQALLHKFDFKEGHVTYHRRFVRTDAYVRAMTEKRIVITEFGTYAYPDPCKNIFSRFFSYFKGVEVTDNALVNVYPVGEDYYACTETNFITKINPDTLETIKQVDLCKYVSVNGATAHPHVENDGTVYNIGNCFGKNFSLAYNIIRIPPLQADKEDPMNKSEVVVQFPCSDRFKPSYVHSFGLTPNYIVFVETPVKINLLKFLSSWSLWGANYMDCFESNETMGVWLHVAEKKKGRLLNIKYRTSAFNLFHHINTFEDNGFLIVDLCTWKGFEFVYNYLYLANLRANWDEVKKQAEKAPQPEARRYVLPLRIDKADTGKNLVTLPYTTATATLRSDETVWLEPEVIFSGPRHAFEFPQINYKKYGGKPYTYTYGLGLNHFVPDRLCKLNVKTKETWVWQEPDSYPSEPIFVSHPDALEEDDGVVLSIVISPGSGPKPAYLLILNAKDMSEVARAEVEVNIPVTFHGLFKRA

[2] = target: T2, LRAT (Rattus norvegicus, UniProt Q9JI61); experiment: Retinyl ester production by LRAT in rat RPE microsomes; format: biochemical; conditions: 1 mM PBN
T2 construct: from tissue; host or cells: rat eyecup/RPE microsomes
T2 sequence (Q9JI61 1-231): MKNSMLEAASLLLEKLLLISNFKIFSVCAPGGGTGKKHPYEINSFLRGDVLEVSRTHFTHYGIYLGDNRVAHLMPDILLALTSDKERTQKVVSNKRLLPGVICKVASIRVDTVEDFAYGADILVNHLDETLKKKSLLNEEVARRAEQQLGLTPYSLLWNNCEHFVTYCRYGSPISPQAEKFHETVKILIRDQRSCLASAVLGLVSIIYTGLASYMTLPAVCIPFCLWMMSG
Method: Isomerohydrolase activity assay and PBN inhibition—Rats were sacrificed, and eyes were enucleated and dissected to remove the anterior part including lens, vitreous, and retina. The remaining eyecups containing RPE were sonicated 3 times for 20 seconds in a cold 0.32 M sucrose/0.1 M sodium phosphate buffer (pH 7.4). The homogenate was centrifuged (20 minutes, 20,000 g) to sediment sclera, unbroken cells, nuclei and mitochondria. The obtained supernatant was recentrifuged (1 hour, 100,000 g), and the microsomal pellet was resuspended in 10 mM 1,3-bis[tris(hydroxymethyl)-methylamino]propane (BTP), (pH 8.0) and 100 mM NaCl, and stored at −80° C. All-trans-[11,12-^3H]-retinol (1 mCi/ml, 45.5 Ci/mmol, American Radiolabeled Chemical, Inc., St. Louis, Mo.) in N,N-dimethyl formamide was used as the substrate for the isomerohydrolase assay. […] The upper layer was collected, and the generated retinoids were analyzed by normal phase HPLC as described (38). […] The isomerohydrolase activity was calculated from the area of the 11-cis-retinol peak using Radiomatic 610TR software (Perkin Elmer, Boston, Mass.) with synthetic 11-cis-[^3H]-retinol as a standard. […] The inhibition constant for PBN was calculated from the following equation: […] where [I]=concentration of PBN, Vm^i=maximal velocity in the presence of Vm=maximal velocity in the absence of PBN. […]

[3] = tested on: cone photoreceptors; experiment: Cone function by single-flash photopic and flicker-flash ERG in rats; format: in vivo, rat; conditions: 50 mg/kg, 60 minutes after administration, rod-suppressing background
Method: To evaluate cone function under conditions in which rod recovery is suppressed, rats were injected with PBN (50 mg/kg) or saline 60 minutes prior to recording single-flash photopic and flicker-flash ERG recordings. Rats were placed under a steady adapting field of 1.7 log cd·s/m^2 for at least 7 minutes. A single flash of 3.3 log cd·s/m^2 was presented under the same adapting field to elicit a maximal cone response. Cone responses were further evaluated by presenting 1.2 log cd·s/m^2 stimuli flickering at frequencies of 3-, 10-, 20-, and 30-Hz under the same adapting field.
To assess the effect of PBN administration on cone function under conditions when rod recovery was suppressed, single- and flicker-flash ERG recordings were performed under a steady, rod-suppressing background illumination 60 minutes after PBN administration.

CC(C)(C)/[N+]([O-])=C/c1ccccc1 [Compound 1, α-phenyl-N-tert-butyl nitrone]
type of inhibition ([1]; Lineweaver-Burk, with and without 0.1 mM PBN): uncompetitive inhibition | Ki ([1]; all-trans-retinyl palmitate liposomes, 0.1 mM PBN, read-out: Ki (inhibition constant, uncompetitive formula)): 53 ± 7 µM | LRAT inhibition (production of retinyl ester) [2]: not inhibited | effect on cone function [3]: not affected
